We go through two compounds from patent US4201725A, “Secondary amines” (priority 1974, dated 1980).

For data set [1], the system named is reserpine-induced catatonia. Put plainly: Inhibition of reserpine-induced catatonia (preventive, oral compound 30 min before reserpine). In kind it is in vivo, rat (male, OFA strain). The protocol: After sufficient doses of reserpine have been administered to the rat, a series of symptoms occur, more particularly ptosis, catatonia and a drop in central temperature. These symptoms are caused by the depletion of the intragranular reserve pool of biogenetic amines at the synaptic terminals.
An oral dose of the compound to be studied in aqueous solution was administered to batches of 10 male rats of the OFA strain weighing about 150 to 200 g. Thirty minutes later a dose of 5 mg/kg of reserpine was given by intraperitoneal route. Three hours after the injection of reserpine, the animals were suspended by the four paws to a horizontally stretched wire fixed at 15 cm from the ground. The catatonia animals were those which maintained the position so given for at least 30 seconds. […] The maximum score was therefore 10 per batch. An identical trial was undertaken with control animals which received reserpine but none of the compounds being studied.

Another data set concerns catalepsy. Put plainly: Prochlorperazine-induced catalepsy (crossing of homolateral paws). The format is in vivo, rat. The settings on record: 5 mg/kg oral 30 min before prochlorperazine i.p.; 3 h after injection. On the procedure: Additional trials were carried out on rats with Compound 1 and amantadine. These trails involved catalepsy as evidenced by the crossing of the animal's homolateral paws.

Data set [2] concerns reserpine-induced catatonia. Put plainly: Suppression of reserpine-induced catatonia (curative treatment). Conditions: 2.5 and 5 mg/kg oral vs 80 mg/kg amantadine. The format is in vivo, rat (male, OFA strain). The protocol: Batches of 5 male rats of the OFA strain, weighing 150 to 200 g were given 5 mg/kg of reserpine by intraperitoneal route. One hour and 45 minutes later, namely when the animals were in a state of catatonia, an aqueous dose of the compound to be studied was administered by oral route to all the animals with the exception of the control group.
The progress of the catatonia was then noted following the scale used in the tests described hereabove.
The maximum score was thus 5 per batch which means that all the animals of the batch were considered to be still in a state of catatonia.

For data set [3], the system named is neuroleptic-induced catatonia. Nature of the data set: Suppression of neuroleptic (prochlorperazine)-induced catatonia (curative treatment). In kind it is in vivo, rat (male, OFA strain). The settings on record: 5 mg/kg vs 80 mg/kg amantadine. The protocol: Batches of 5 male rats of the OFA strain were given 12.5 mg/kg of prochlorperazine by intraperitoneal route. Fifty-five minutes later, an oral dose in aqueous solution of the compound to be studied was administered to all the animals with the exception of the control group. The progress of the catatonia was noted following the same scale as that used in the tests described above.

Data set [4] has as its system isolated duodenum of the rat. Put plainly: MAGNUS test: cholinolytic/spasmolytic activity on acetylcholine spasm in vitro. From the text: This test consists in determining the dose of acetylcholine which, when added to the bath, provokes spasm of the isolated duodenum of the rat. The next step consists in determining the dose of the compound under study which, when added to the bath 30 seconds before the acetylcholine, reduces the spasm.

The test system of data set [5] is cholinergic effects of tremorine. Nature of the data set: Anti-tremorine test in vivo. Further details: species or system mice (male, OF1 strain). On the procedure:
When injected into mice, tremorine produces peripheral effects i.e. weeping, sweating, salivation and diarrhoea and central effects i.e. tremor and akinesia. Such effects are due to an increase in the amount of intracerebral acetylcholine and serotonine.
[…] Thirty minutes later a dose of 10 mg/kg of tremorine was injected by intraperitoneal route and, at different times after this injection, note was taken of the cholinergic effects on each animal in accordance with the following scale:

Data set [6] is described as follows: Spasmolytic activity in vivo. The settings on record: at antiparkinson doses, well below the toxic dose.
For data set [7] the following is noted: SPERBER et al., J. Amer. Chem. Soc., 71, 3352 (1949); cited from earlier work.
The conditions of data set [8]: SPERBER et al., J. Amer. Chem. Soc., 71, 3352 (1949); cited from earlier work. The source holds these as a separate data set.
Data set [9] deals with arterial pressure and nictitating membrane (norepinephrine). Nature of the data set: Influence on peripheral noradrenergic phenomena (norepinephrine, anaesthetized cat). The settings on record: for Contractile reaction of the nictitating membrane without electric stimulation: at 0 mg/kg: 0; for Contractile reaction of the nictitating membrane with electric stimulation: at 0 mg/kg: Compound 1 17, amantadine 20; for Increase in arterial pressure after injection of norepinephrine: at 0 mg/kg: Compound 1 26, amantadine 28.
Protocol: A cat, anaesthetized with pentobarbital, received a sufficient dose of norepinephrine to increase arterial pressure but not sufficient to cause contraction of the nictitating membrane. Arterial pressure was measured at the carotid immediately after administration of the dose of norepinephrine.

For data set [10], the system named is neuroleptic-induced catatonia. Put plainly: Inhibition of neuroleptic (prochlorperazine)-induced catatonia (preventive). Conditions: 6 mg/kg oral. The format is in vivo, rat (male, OFA strain). The protocol:
The blocking of dopaminergic receptors by neuroleptics in the extra-pyramidal system induces catatonia in the rat. Catatonia is differentiated from sedative properties by means of the test used hereabove for reserpine-induced catatonia. The same system of scoring was also employed in the present case.
An oral dose of the compound to be studied in aqueous solution was administered to batches of 10 male rats of the OFA strain weighing about 150 to 200 g.
Three hours after the injection of this latter compound, catatonia was measured. An identical trial was also carried out with control animals which received prochlorperazine but none of the compounds under study.
The scoring system used was that given hereabove for Table I.

The next data set deals with monoamine oxidase. Nature of the data set: Inhibitory effect on monoamine oxidase.
A short description of the next data set: in vivo. The settings on record: mouse, po.
A short description of another data set: Tremor-inducing action. Conditions: 0.031 m mol/kg oral, 30 min, hydrochloride form.

“Also recorded” adds a separate entry of the source. Read-outs that look alike come from different tables or passages of the source.

Description for Tremor-inducing action: Batches of 10 rats were given 0.031 m mol/kg of the compound to be studied by oral route.

As to `CCCC(N)(CCC)CCC` [Compound 1], the “activity in pharmacological trials (in words)” value in [1] (rat, in vivo) is on record as “marked degree of activity”. For the same compound, the “inhibition of the catalepsy” value in the data set on catalepsy was “complete inhibition of the catalepsy”. Further, the “suppression of reserpine-induced catatonia (in words)” value in data set [2] is listed as “suppresses reserpine-induced catatonia more rapidly than a dose of 80 mg/kg of amantadine”. Besides, the “action against neuroleptic-induced catatonia (in words)” value in data set [3] is recorded as “acts against neuroleptic-induced catatonia more rapidly than does a dose of 80 mg/kg of amantadine”. Besides, the “spasmolytic / cholinolytic activity in vitro (in words)” value is “virtually non-existent in comparison with that of atropine; also recorded: extremely weak cholinolytic action” in [4] and “very weak, in fact practically non-existent” in data set [4] (listed as tri-n-propylmethylamine). Further, the “antitremorine properties (in words)” value in [5] (5 mg/kg Compound 1, 40 mg/kg amantadine) is on record as “devoid of antitremorine properties”. In data set [5] (5 mg/kg oral, identical to the peripheral score of 4), the “central cholinergic effects (normal and provoked tremor)” value is reported as “Identical results”. Further, the “cholinolytic properties in vivo (in words)” value in [5] (therapeutic doses) is listed as “absence of cholinolytic properties”. Further, the “spasmolytic activity in vivo (in words)” value in data set [6] is given as “non-existent”. Also, the “spasmolytic activity (in words)” value in [7] is given as “less spasmolytic”. In addition, the “toxicity (in words)” value in data set [8] is listed as “more toxic than the corresponding trialkylethylamines”. Also, the “potentiation of norepinephrine / peripheral adrenergic effects (in words)” value in [9] (cat, i.v.) is listed as “does not potentiate the effects either of exogenous norepinephrine or of endogenous norepinephrine”. Besides, the “Contractile reaction of the nictitating membrane without electric stimulation” value in data set [9] (cumulative dose 0.1 mg/kg i.v.), in data set [9] (cumulative dose 1 mg/kg i.v.), in data set [9] (cumulative dose 3 mg/kg i.v.), in data set [9] (cumulative dose 5 mg/kg i.v.) and in [9] (cumulative dose 10 mg/kg i.v.) was 0 mm throughout. Also, the “Contractile reaction of the nictitating membrane with electric stimulation” value in data set [9] (cumulative dose 0.1 mg/kg i.v.) was found to be 15 mm; in [9] (cumulative dose 1 mg/kg i.v.) it was 16 mm; in data set [9] (cumulative dose 3 mg/kg i.v.) it was 17 mm; in [9] (cumulative dose 5 mg/kg i.v.) it was 16 mm; in [9] (cumulative dose 10 mg/kg i.v.), 12 mm. For the same compound, the “Increase in arterial pressure after injection of norepinephrine” value in data set [9] (cumulative dose 0.1 mg/kg i.v.) was 18 mm Hg; in data set [9] (cumulative dose 1 mg/kg i.v.), 25 mm Hg; in [9] (cumulative dose 3 mg/kg i.v.), 29 mm Hg; in data set [9] (cumulative dose 5 mg/kg i.v.) it was 25 mm Hg; in [9] (cumulative dose 10 mg/kg i.v.), 22 mm Hg.

For `CCCC(CCC)(CCC)NC` [Compound 27, N-Methyl-1,1-di-n-propyl-n-butylamine], the “Inhibition of reserpine-induced catatonia” value in data set [1] (6 mg/kg oral) was 4 (represents 100% inhibition of catatonia in comparison with the controls). Also, the “index of reserpine-induced catatonia (numerator of ratio)” value in data set [1] (0.031 m mol/kg oral, hydrochloride form) is given as 4 (represents 100% inhibition of catatonia in comparison with the controls). The “Inhibition of the neuroleptic-induced catatonia” value in data set [10] is reported as 3 (represents 70 to 80% inhibition of catatonia in comparison with the controls). The “inhibitory effects on the monoamine oxidase (in words)” value in the data set on monoamine oxidase was “practically devoid of inhibitory effects”. Further, the selectivity ratio in the data set “in vivo” was determined as 16.5. The “number of animals presenting tremors (denominator of ratio)” value in the data set “Tremor-inducing action” (batches of 10 rats) is listed as 4. For the same compound, the “ratio of index of reserpine-induced catatonia inhibition to number of animals presenting tremors” value in the data set “Tremor-inducing action” is on record as 1.
